Like-named read-outs stand apart in the source and are kept apart here.
How the values were obtained:
human A2B receptors [1] = molecular target: T1, human A2B receptors (Homo sapiens, UniProt P29275); conditions: ref Jacobson et al., 1999, cited from earlier work
T1 construct: expressed in transfected cells; host or cells: HEK-293
T1 sequence (P29275 1-332): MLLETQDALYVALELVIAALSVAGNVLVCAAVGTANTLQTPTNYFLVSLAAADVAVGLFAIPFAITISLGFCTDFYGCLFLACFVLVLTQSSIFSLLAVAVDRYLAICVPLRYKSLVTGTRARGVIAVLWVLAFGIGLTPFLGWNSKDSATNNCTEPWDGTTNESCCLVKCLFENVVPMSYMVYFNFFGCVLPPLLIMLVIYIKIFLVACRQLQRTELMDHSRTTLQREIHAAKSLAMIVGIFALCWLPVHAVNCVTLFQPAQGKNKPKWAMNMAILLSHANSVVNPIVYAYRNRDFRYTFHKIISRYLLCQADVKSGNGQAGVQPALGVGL

A2B receptor = system: A2B receptor; design: method as in Brackett and Daly, 1994; conditions: ref Brackett and Daly, 1994; cited from earlier work
human A2B receptors [2] = molecular target: T1, human A2B receptors; assay: Binding at human A2B receptors expressed in HEK-293 cells vs [3H]ZM241385; conditions: for rA1/hA2B: ratio of Ki rat A1 to Ki human A2B
Protocol: The plasmid was amplified in competent JM109 cells and plasmid DNA isolated using Wizard Megaprep columns (Promega Corp., Madison, WI).
Colonies were selected by growth of cells in 0.6 mg/mL G418. Transfected cells were maintained in DMEM supplemented with Hams F12 nutrient mixture (1/1), 10% newborn calf serum, 2 mM glutamine, and containing 50 IU/mL penicillin, 50 μg/mL streptomycin, and 0.2 mg/mL Geneticin (G418, Boehringer Mannheim, Indianapolis, IN).
Confluent monolayers of HEK-A2B cells were washed with PBS followed by ice-cold Buffer A (10 mM HEPES, 10 mM EDTA, pH 7.4) with protease inhibitors ([…] benzamidine, […], and […] of each aprotinin, pepstatin, and leupeptin). The cells were homogenized in a Polytron (Brinkmann) for 20 sec, centrifuged at 30,000g, and the pellets washed twice with buffer HE (10 mM HEPES, 1 mM EDTA, pH 7.4 with protease inhibitors). The final pellet was resuspended in buffer HE, supplemented with 10% sucrose and frozen in aliquots at −80°C. For binding assays, membranes were thawed and diluted 5–10-fold with HE to a final protein concentration of approximately 1 mg/mL. […] After incubating for 20 min at room temperature, 50 mL of 10 mg/mL Na-metabisulfite in water was added the quench the reaction. The reaction products were applied to a C18 HPLC column using 4 mM phosphate, pH 6.0/methanol. […] The incubation time was 3 h at 21°C. […] Membranes were filtered on Whatman GF/C filters using a Brandell cell harvester (Gaithersburg, MD) and washed three times over 15–20 sec with ice-cold buffer (10 mM Tris, 1 mM MgCl2, pH 7.4). […] Data from replicate experiments are tabulated as means ± SEM.
At A2B receptors, two radioligand binding assays (Table 1) were used. […] In order to evaluate selectivity, selected derivatives were subjected to standard binding assays at A1, A2A, and A3 receptors.

rat A1 receptors = molecular target: T2, rat A1 receptors (Rattus norvegicus, UniProt P25099); assay: Displacement of [3H]R-PIA binding to A1 receptors in rat brain membranes; conditions: read-out: Ki rA1
T2 construct: to A1 receptors from rat cerebral cortical membranes; from tissue; host or cells: rat cerebral cortical membranes
T2 sequence (P25099 1-326): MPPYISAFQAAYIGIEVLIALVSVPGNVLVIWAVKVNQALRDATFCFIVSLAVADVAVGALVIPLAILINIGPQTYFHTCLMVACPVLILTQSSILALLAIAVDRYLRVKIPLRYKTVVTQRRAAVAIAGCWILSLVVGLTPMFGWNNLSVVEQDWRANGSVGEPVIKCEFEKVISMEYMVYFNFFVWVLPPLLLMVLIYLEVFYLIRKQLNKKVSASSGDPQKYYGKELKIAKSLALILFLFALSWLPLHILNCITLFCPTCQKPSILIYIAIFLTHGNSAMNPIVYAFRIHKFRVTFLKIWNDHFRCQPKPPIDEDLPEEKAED
Protocol: (§1) All nonradioactive compounds were initially dissolved in DMSO and diluted with buffer to the final concentration, where the amount of DMSO never exceeded 2%. Incubations were terminated by rapid filtration over Whatman GF/B filters using a Brandell cell harvester. The tubes were rinsed three times with 3 mL buffer each.
(§2) At least six different concentrations of competitor, spanning 3 orders of magnitude adjusted appropriately for the IC50 value of each compound, were used. IC50 values, calculated with the nonlinear regression method implemented in Graph-Pad Prism (San Diego, CA) were converted to apparent Ki values as described by [Linden [1982]]. Hill coefficients of the tested compounds were in the range of 0.8–1.1.
(§3) At A2B receptors, two radioligand binding assays (Table 1) were used. Ki values of xanthine derivatives were determined in displacement of binding of the non-selective radioligands […], 8 (4-(2-[7-amino-2-{furyl}{1,2,4}triazolo{2,3-a}{1,3,5}tr nzyl)-8-phenyloxyacetate-1-propyl-xanthine), at human A2B receptors expressed in HEK-293 cell membranes [[Linden and Jacobson, 1998]]. In order to evaluate selectivity, selected derivatives were subjected to standard binding assays at A1, A2A, and A3 receptors. The initial screening utilized rat brain A1/A2A receptors (with radioligands [^3H]R-PIA and [^3H]CGS-21680), and selected compounds were examined at the recombinant human subtypes (Table 1), using [^3H]CPX ([^3H]8-cyclopentyl-1,3-dipropylxanthine) and ^125I-ZM 241385, ^125I-4-(2-[7-amino-2-[2-furyl][1,2,4]triazolo[2,3-a][1,3,5]triazin-5-yl-amino]ethyl)phenol) [[Palmer et al., 1996]].

human A2A receptors = molecular target: T3, human A2A receptors (Homo sapiens, UniProt P29274); assay: Binding at recombinant human A2A receptors expressed in HEK-293 cells vs [125I]ZM241385; conditions: recombinant human A2A in HEK-293 cells, read-out: Ki A2A (h) (converted)
T3 construct: expressed in transfected cells; host or cells: HEK-293
Protocol: as §1, §2, §3

rat A2A receptors = molecular target: T4, rat A2A receptors (Rattus norvegicus, UniProt P30543); assay: Displacement of [3H]CGS 21680 binding to A2A receptors in rat striatal membranes; conditions: read-out: Ki rA2A
T4 construct: to A2A receptors from rat striatal membranes; from tissue; host or cells: rat striatal membranes
Protocol: as §1, §2, §3

human A3 receptors = molecular target: T5, human A3 receptors (Homo sapiens, UniProt P0DMS8); assay: Displacement of [125I]AB-MECA binding at human A3 receptors expressed in HEK cells; conditions: read-out: Ki hA3
T5 construct: expressed in transfected cells; host or cells: HEK-293
T5 sequence (P0DMS8 1-318): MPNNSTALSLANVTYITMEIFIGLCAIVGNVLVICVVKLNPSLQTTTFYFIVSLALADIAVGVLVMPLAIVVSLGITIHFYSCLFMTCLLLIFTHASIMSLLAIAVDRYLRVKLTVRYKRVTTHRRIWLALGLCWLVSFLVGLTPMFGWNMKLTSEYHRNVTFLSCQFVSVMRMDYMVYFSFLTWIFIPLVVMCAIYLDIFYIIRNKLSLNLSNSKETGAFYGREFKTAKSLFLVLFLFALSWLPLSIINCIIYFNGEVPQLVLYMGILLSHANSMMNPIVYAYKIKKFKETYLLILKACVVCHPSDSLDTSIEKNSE
Protocol: as §3

human A1 receptors = molecular target: T6, human A1 receptors (Homo sapiens, UniProt P30542); assay: Binding at recombinant human A1 receptors expressed in HEK-293 cells vs [3H]CPX; conditions: recombinant human A1 in HEK-293 cells
T6 construct: expressed in transfected cells; host or cells: HEK-293
T6 sequence (P30542 1-326): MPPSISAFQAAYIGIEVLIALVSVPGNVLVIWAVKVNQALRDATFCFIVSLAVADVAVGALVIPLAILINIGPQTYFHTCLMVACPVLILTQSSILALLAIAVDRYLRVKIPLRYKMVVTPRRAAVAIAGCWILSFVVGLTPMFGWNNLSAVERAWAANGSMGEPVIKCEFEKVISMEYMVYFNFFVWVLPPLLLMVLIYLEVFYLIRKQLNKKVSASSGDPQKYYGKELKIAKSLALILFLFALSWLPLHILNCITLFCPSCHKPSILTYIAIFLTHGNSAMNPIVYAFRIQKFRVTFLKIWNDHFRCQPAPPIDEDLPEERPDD
Protocol: as §1, §2, §3

[3] = HEK-293 cells, vs [3H]ZM241385, read-out: Ki hA2B
[4] = rounded values given in text, read-out: Ki at human A2B receptors

T4 sequence (P30543 whole entry): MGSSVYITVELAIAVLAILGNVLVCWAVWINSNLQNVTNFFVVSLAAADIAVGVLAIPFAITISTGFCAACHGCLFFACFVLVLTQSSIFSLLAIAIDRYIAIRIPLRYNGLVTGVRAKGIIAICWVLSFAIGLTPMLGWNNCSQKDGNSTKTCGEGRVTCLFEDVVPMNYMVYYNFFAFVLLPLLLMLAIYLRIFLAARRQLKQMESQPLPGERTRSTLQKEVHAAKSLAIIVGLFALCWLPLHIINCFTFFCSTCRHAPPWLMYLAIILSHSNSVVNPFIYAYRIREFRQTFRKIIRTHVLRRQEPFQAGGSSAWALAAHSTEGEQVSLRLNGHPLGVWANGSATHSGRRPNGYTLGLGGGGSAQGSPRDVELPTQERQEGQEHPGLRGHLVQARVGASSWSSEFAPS
T3 sequence (P29274 whole entry): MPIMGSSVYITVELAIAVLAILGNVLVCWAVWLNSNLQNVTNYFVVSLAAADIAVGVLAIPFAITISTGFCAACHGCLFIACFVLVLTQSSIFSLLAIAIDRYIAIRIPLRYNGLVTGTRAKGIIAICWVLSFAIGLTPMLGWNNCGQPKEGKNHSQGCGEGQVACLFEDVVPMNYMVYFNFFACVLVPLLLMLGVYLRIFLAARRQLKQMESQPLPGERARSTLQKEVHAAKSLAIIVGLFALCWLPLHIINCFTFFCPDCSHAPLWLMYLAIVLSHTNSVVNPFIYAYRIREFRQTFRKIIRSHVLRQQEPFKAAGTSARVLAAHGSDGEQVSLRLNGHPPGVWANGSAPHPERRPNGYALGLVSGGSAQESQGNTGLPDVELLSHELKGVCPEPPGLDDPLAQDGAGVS

Structure (SMILES)	enhancement of affinity at A2B receptors (human A2B receptors [1]; relative to theophylline, 2) [fold]	selectivity as antagonist at the A2B receptor vs. other subtypes (A2B receptor)	selectivity for human A2B receptors vs. A1, A2A, and A3 adenosine receptors (human A2B receptors [1])	Ki (human A2B receptors [2]; [3]) [nM]	rA1/hA2B (human A2B receptors [2])	Ki (rat A1 receptors) [nM]	Ki (human A2A receptors) [nM]	Ki (rat A2A receptors) [nM]	Ki (human A3 receptors) [nM]	Ki (human A1 receptors) [nM]	Ki (human A2B receptors [2]; [4]) [nM]
Cn1c(=O)c2[nH]c(-c3ccccc3)nc2n(C)c1=O [Compound 3]	22										
O=c1nc2[nH]c3ccccc3nc-2c(=O)[nH]1 [Alloxazine]		approximately one order of magnitude									
CCCn1c(=O)c2[nH]c(-c3ccc(OCC(=O)ON4C(=O)CCC4=O)cc3)nc2n(CCC)c1=O [Compound 4d]			approximately 20 fold								
CCCn1c(=O)c2[nH]c(-c3ccc(OCC(=O)NN4C(=O)CC[C@H](NC(=O)C(F)(F)F)C4=O)cc3)nc2n(CCC)c1=O [Compound 24b]				13 ± 3.5	4.1	53.5 ± 6.5	178	440 ± 106	726 ± 245	149	
CCCn1c(=O)c2[nH]c(-c3ccc(OCC(=O)NN4C(=O)CCC4=O)cc3)nc2n(CCC)c1=O [Compound 10, 8-[4-[(Carboxymethyl)oxy]phenyl]-1,3-di-(n-propyl)xanthine N,N-Succinylhydrazide]				18.6 ± 6.1	3.0	55.9 ± 25.1	27.2	805 ± 44	766 ± 176	75.2	
CCCn1c(=O)c2[nH]c(-c3ccc(OCC(=O)NNC(=O)CNC(=O)CNC(=O)OCc4ccccc4)cc3)nc2n(CCC)c1=O [Compound 27, 8-[4-[(Carboxymethyl)oxy]phenyl]-1,3-di-(n-propyl)xanthine N-(N-Benzyloxycarbonyl-glycylglycinyl)hydrazide]				10.8 ± 5	3.3	36 ± 6.6	830	609 ± 95	323 ± 47	200	11
CCCn1c(=O)c2[nH]c(-c3ccc(OCC(=O)NNC(=O)[C@H](CCC(=O)O)NC(=O)C(F)(F)F)cc3)nc2n(CCC)c1=O [Compound 24a, 8-[4-[(Carboxymethyl)oxy]phenyl]-1,3-di-(n-propyl)xanthine N-[(4-Carboxy-(2S)-Trifluoroacetamido)-n-butanoyl]hydrazide]				24.8 ± 7.3	2.9	70.8 ± 30.9		872 ± 412	430 ± 44		25
CCCn1c(=O)c2[nH]c(-c3ccc(OCC(=O)NN4C(=O)C5CC=CCC5C4=O)cc3)nc2n(CCC)c1=O (stereo not drawn) [Compound 18b, 8-[4-[(Carboxymethyl)oxy]phenyl]-1,3-di-(n-propyl)xanthine N,N-(cis-1,2,3,6-Tetrahydrophthaloyl)-hydrazide]				10 ± 3	3.6	36.4 ± 6.2	301	689 ± 477	370 ± 190	129	
